Experimental data from ChEMBL document CHEMBL4765489, “A FabG inhibitor targeting an allosteric binding site inhibits several orthologs from Gram-negative ESKAPE pathogens” (Bioorg Med Chem, 2021).
Active and inactive are the calls of the source. The calls are words filed in the database; no cut-off is given here.

Assays:
[1] = Inhibition of Salmonella typhimurium N-terminal His6-tagged FabG expressed in Escherichia coli BL21 (DE3) using AcAcCoA as substrate assessed as NADPH consumption measured for 6 to 10 mins in presence of NADPH by spectrophotometric analysis; parameters: species or system Salmonella enterica subsp. enterica serovar Typhimurium
[2] = Inhibition of Escherichia coli N-terminal His6-tagged FabG expressed in Escherichia coli BL21 (DE3) using AcAcCoA as substrate assessed as NADPH consumption measured for 6 to 10 mins in presence of NADPH by spectrophotometric analysis
[3] = Inhibition of Klebsiella pneumoniae N-terminal His6-tagged FabG1 expressed in Escherichia coli BL21 (DE3) using AcAcCoA as substrate assessed as NADPH consumption measured for 6 to 10 mins in presence of NADPH by spectrophotometric analysis
[4] = Inhibition of Pseudomonas aeruginosa N-terminal His6-tagged FabG expressed in Escherichia coli BL21 (DE3) using AcAcCoA as substrate assessed as NADPH consumption measured for 6 to 10 mins in presence of NADPH by spectrophotometric analysis
[5] = Inhibition of Salmonella typhimurium N-terminal His6-tagged FabG expressed in Escherichia coli BL21 (DE3) using 3-OHdNAC as substrate assessed as NADPH formation incubated for 2 hrs in presence of NADP by spectrophotometric analysis; parameters: species or system Salmonella enterica subsp. enterica serovar Typhimurium
[6] = Inhibition of Acinetobacter baumannii N-terminal His6-tagged FabG expressed in Escherichia coli BL21 (DE3) using AcAcCoA as substrate assessed as NADPH consumption measured for 6 to 10 mins in presence of NADPH by spectrophotometric analysis
[7] = Inhibition of Staphylococcus aureus N-terminal His6-tagged FabG expressed in Escherichia coli BL21 (DE3) using AcAcCoA as substrate assessed as NADPH consumption measured for 6 to 10 mins in presence of NADPH by spectrophotometric analysis
[8] = Inhibition of Acinetobacter baumannii N-terminal His6-tagged FabG expressed in Escherichia coli BL21 (DE3) using 3-OHdNAC as substrate assessed as NADPH formation incubated for 2 hrs in presence of NADP by fluorescence based analysis
Acinetobacter baumannii [9] = experiment: Allosteric binding affinity to Acinetobacter baumannii N-terminal His6-tagged FabG expressed in Escherichia coli BL21 (DE3) assessed as melting temperature at 1 mM incubated for 15 mins by Sypro orange dye based differential scanning fluorimetry (reference value: 61.3 degreeC)
Escherichia coli = experiment: Allosteric binding affinity to Escherichia coli N-terminal His6-tagged FabG expressed in Escherichia coli BL21 (DE3) assessed as protein destabilization by measuring decrease in melting temperature at 1 mM incubated for 15 mins by Sypro orange dye based differential scanning fluorimetry
[10] = test system: Salmonella enterica subsp. enterica serovar Typhimurium; experiment: Allosteric binding affinity to Salmonella typhimurium N-terminal His6-tagged FabG expressed in Escherichia coli BL21 (DE3) assessed as protein destabilization by measuring decrease in melting temperature at 1 mM incubated for 15 mins by Sypro orange dye based differential scanning fluorimetry
Klebsiella pneumoniae = experiment: Allosteric binding affinity to Klebsiella pneumoniae N-terminal His6-tagged FabG expressed in Escherichia coli BL21 (DE3) assessed as protein destabilization by measuring decrease in melting temperature at 1 mM incubated for 15 mins by Sypro orange dye based differential scanning fluorimetry
Pseudomonas aeruginosa = experiment: Allosteric binding affinity to Pseudomonas aeruginosa N-terminal His6-tagged FabG expressed in Escherichia coli BL21 (DE3) assessed as protein destabilization by measuring decrease in melting temperature at 1 mM incubated for 15 mins by Sypro orange dye based differential scanning fluorimetry
Staphylococcus aureus = experiment: Allosteric binding affinity to Staphylococcus aureus N-terminal His6-tagged FabG expressed in Escherichia coli BL21 (DE3) assessed as protein destabilization by measuring decrease in melting temperature at 1 mM incubated for 15 mins by Sypro orange dye based differential scanning fluorimetry
Acinetobacter baumannii [11] = experiment: Allosteric binding affinity to Acinetobacter baumannii N-terminal His6-tagged FabG expressed in Escherichia coli BL21 (DE3) assessed as reduction in NADPH bound protein fraction at 100 to 500 uM by fluorescence based analysis; settings: dose 100-500 µM

| Structure (SMILES) | IC50 [1] [µM] | IC50 [2] [µM] | IC50 [3] [µM] | IC50 [4] [µM] | IC50 [5] [µM] | IC50 [6] [µM] | IC50 [7] [µM] | IC50 [8] [µM] | Tm (Acinetobacter baumannii [9]) [°C] | Activity (Escherichia coli) | Activity [10] | Activity (Klebsiella pneumoniae) | Activity (Pseudomonas aeruginosa) | Activity (Staphylococcus aureus) | Activity (Acinetobacter baumannii [11]) |
| --- | --- | --- | --- | --- | --- | --- | --- | --- | --- | --- | --- | --- | --- | --- | --- |
| O=c1[nH]c(SCc2c(Cl)cccc2Cl)nc2ccnn12 | 150 | 19.9 | 137 | 30.9 | 22 | – | – | – | – | – | – | – | – | – | – |
| O=C(Nc1ccc(Br)cc1C(=O)O)c1cccs1 | 175 | – | 186 | 3.1 | 5.1 | 33.4 | – | – | – | – | – | – | – | – | – |
| CCOC(=O)c1c(CN(C)C)n(-c2ccccc2)c2cc(Br)c(O)cc12 | 12 | 7 | 13.8 | 19.7 | 35 | 64 | 70.7 | 0.36 | 58.5 | Active | Active | Active | Active | Active | Active |
